In PMC12457078, “Inhibition of soluble epoxide hydrolase in endotoxin induced pig lung injury” (Frontiers in Pharmacology, 2025):
Where “and” joins values, the source holds several entries; their conditions need not be identical. Identical values can stand only once.

Test system: endotoxin-induced lung injury
Test: porcine model of LPS-induced acute lung injury: haemodynamics, ventilation/mechanics, blood gases, P/F, chemistry, temperature, survival
Assay type: in vivo, pig
Design: AF baseline / AF end / Ven. sat end: unit not given here
Method: The animals were bred for purpose at the Forslunda Agricultural School in Umeå, Sweden. The pigs were pairwise kept in 8 m^2 pens before start of experiments and were fed twice daily with a commercially available pig diet without antimicrobials, and with free access to water. Photoperiods were 12:12 h light:dark. Room temperature in their stall was 20 °C ± 1 °C.
After overnight fasting, but with free access to water and hay, animals were pre-medicated with ketamine (Ketaminol vet® 100 mg/mL; Intervet International B.V, Boxmeer, Netherlands), xylazine (Rompun® vet 20 mg/mL; Bayer Animal Health, Copenhagen, Denmark) and atropine (Atropin Mylan 0.5 mg/mL; Mylan AB, Stockholm, Sweden) by intramuscular injection before an auricular vein was cannulated. Anesthesia was induced with ketamine and midazolam (Midazolam Hameln 5 mg/mL, Hameln Pharmaceuticals, Hameln, Germany) and maintained with ketamine, midazolam, xylazine and fentanyl (Fentanyl 0.05 mg/mL, B. Braun Medical AB, Danderyd, Sweden). The animals were orotracheally intubated and ventilated with tidal volume 8–9 mL/kg, PEEP 8 cmH2O, and a respiratory rate set to achieve an end-tidal carbon dioxide of 5–5.5 kPa.
One animal served as a pharmacokinetic pilot, with arterial and venous catheters placed in a cut-down in the neck. The remaining 21 animals were used for the randomized study (Figure 1). After intubation and start of mechanical ventilation, a second auricular vein cannula was placed and infusion of either AEPU or placebo according to randomization was started. After 2 h of infusion of AEPU or placebo, an infusion of LPS was started. A bolus of 0.1 mg/kg was administered during 30 min after which the infusion rate was adjusted to 0.01 mg/kg/h. During the time between start of AEPU or placebo and LPS infusion, neck dissection was performed, exposing the v jugularis externa and carotid artery. A pulmonary artery introducer and an arterial cannula were placed in vein and artery respectively, and a pulmonary artery catheter introduced through the introducer and the tip placed in the correct position in the pulmonary artery placement guided by continuous invasive pressure monitoring or, when difficult, assisted by fluoroscopy. All surgical procedures were performed under sterile conditions.
AEPU was synthesized according to Kim et al. ([Kim et al., 2007]), delivered in 60 mg vials and dissolved in 30 mL pure ethanol as a co-solvent, of which either 20 mL was added to 980 mL of sodium chloride 9 mg/mL or 8 mL–392 mL sodium chloride, creating a solution of 0.04 mg/mL AEPU and 2% ethanol. The placebo infusion was prepared by adding either 20 mL of pure ethanol to 980 mL of sodium chloride 9 mg/mL or 8 mL of pure ethanol to 392 mL sodium chloride, creating a 2% ethanol solution. Each animal received an infusion of either 0.1 mg/kg/h AEPU or the corresponding volume of placebo solution.
A total of 200 mg of prefabricated lipopolysaccharides (LPS, Escherichia coli serotype 0,111:B4, Sigma-Aldrich (Product no L4130), St. Louis, MO, United States of America) was dissolved in 40 mL of sterile water, carefully mixed and filtered, creating a solution of 5 mg/mL. This preparation was stored frozen (−20 °C) in 1 mL partitions. For each animal, 2 mL of the thawed solution was mixed and diluted in 18 mL of sodium chloride, finally creating a 0.5 mg/mL LPS solution for infusion.
All animals were monitored with pulse oximetry, heart rate, ECG, systemic arterial blood pressure (ABP), pulmonary arterial pressure (PAP), central venous pressure (CVP) temperature, tidal volumes, respiratory rate and end tidal carbon dioxide. At baseline, and at 3 h, 6 h and at the end of the experiment, pulmonary capillary wedge pressure (PCWP) was measured together with arterial and venous blood gas analyses, as well as cardiac output calculations. […]

[1] = individual animals, 3 h, listed as sEH-i 950
[2] = individual animals, 6 h, listed as sEH-i 950
[3] = individual animals, end, listed as sEH-i 950
[4] = last available measurement, AEPU group

CCOCCOCCOCCCCCNC(=O)NC12CC3CC(CC(C3)C1)C2 [Compound 950]
PaO2 3 h [1]: 22.1 kPa and 20.1 kPa and 17 kPa and 22.7 kPa and 19.3 kPa and 16.7 kPa and 9 kPa and 8.1 kPa and 7.3 kPa and 14.7 kPa | SBP 3 h [1]: 124 mmHg and 122 mmHg and 103 mmHg and 102 mmHg and 110 mmHg and 101 mmHg and 162 mmHg and 123 mmHg and 78 mmHg and 116 mmHg | SPAP 3 h [1]: 82 mmHg and 46 mmHg and 45 mmHg and 53 mmHg and 66 mmHg and 58 mmHg | Ven. sat 3 h [1]: 69 and 79 and 74 and 62 and 58 and 49 and 34 | CO 6 h [2]: 3.2 L/min and 3.3 L/min and 3.1 L/min and 1.7 L/min and 2.4 L/min | CVP 6 h [2]: 14 mmHg and 16 mmHg and 22 mmHg and 15 mmHg and 26 mmHg and 25 mmHg | HR 6 h [2]: 170 and 173 and 175 and 138 and 120 and 226 and 116 and 162 | MAP 6 h [2]: 82 mmHg and 60 mmHg and 94 mmHg and 91 mmHg and 66 mmHg and 55 mmHg | MPAP 6 h [2]: 35 mmHg and 44 mmHg and 42 mmHg and 24 mmHg and 49 mmHg and 41 mmHg and 43 mmHg | PCWP 6 h [2]: 19 mmHg and 17 mmHg and 18 mmHg and 21 mmHg | PaCO2 6 h [2]: 5.1 kPa and 5.9 kPa and 6.2 kPa and 5.3 kPa and 5.5 kPa and 4.4 kPa and 6.3 kPa and 8 kPa and 9.4 kPa | PaO2 6 h [2]: 19.6 kPa and 12.3 kPa and 11.8 kPa and 18.6 kPa and 18.5 kPa and 14.7 kPa and 8.7 kPa and 9.4 kPa and 6.8 kPa and 7.9 kPa | SBP 6 h [2]: 104 mmHg and 106 mmHg and 119 mmHg and 88 mmHg and 110 mmHg and 100 mmHg and 95 mmHg | SPAP 6 h [2]: 42 mmHg and 47 mmHg and 48 mmHg and 36 mmHg and 57 mmHg and 44 mmHg and 52 mmHg and 53 mmHg | Ven. sat 6 h [2]: 57 and 59 and 45 and 73 and 68 and 44 and 46 and 7 and 10 | MPAP (vid max SPAP) (individual animals, at max SPAP, listed as sEH-i 950): 60 mmHg and 52 mmHg and 62 mmHg and 57 mmHg and 84 mmHg and 66 mmHg and 47 mmHg | CO end [3]: 3.9 L/min and 2.8 L/min and 3.6 L/min and 5.2 L/min and 0 L/min and 1.4 L/min | CVP end [3]: 17 mmHg and 15 mmHg and 13 mmHg and 20 mmHg | HR end [3]: 163 and 147 and 150 and 130 and 165 and 160 (0) and 135 | MAP end [3]: 55 mmHg and 56 mmHg and 105 mmHg and 64 mmHg and 67 mmHg and 42 mmHg and 43 mmHg | MPAP end [3]: 30 mmHg and 50 mmHg and 33 mmHg and 24 mmHg and 40 mmHg and 43 mmHg and 48 mmHg | PCWP end [3]: 17 mmHg and 22 mmHg and 16 mmHg and 15 mmHg and 25 mmHg | PaCO2 end [3]: 5.3 kPa and 6.1 kPa and 4.8 kPa and 4.4 kPa and 7.3 kPa and 6.4 kPa | PaO2 end [3]: 19.9 kPa and 13.4 kPa and 12 kPa and 19.5 kPa and 12.2 kPa and 4.4 kPa and 8.7 kPa | SBP end [3]: 102 mmHg and 103 mmHg and 116 mmHg and 97 mmHg and 92 mmHg and 66 mmHg and 70 mmHg | SPAP end [3]: 38 mmHg and 57 mmHg and 43 mmHg and 29 mmHg and 47 mmHg and 49 mmHg and 54 mmHg | Ven. sat end [3]: 69 and 54 and 58 and 56 and 70 and 19 | SPAP max (individual animals, maximum, listed as sEH-i 950): 73 mmHg and 71 mmHg and 91 mmHg and 70 mmHg and 72 mmHg and 84 mmHg and 80 mmHg and 75 mmHg | Bilirubin [4]: 11.1 (8.6–18.8) μmol/L | CVP [4]: 16 (15–17) mmHg | Compliance [4]: 7.9 (7.3–9.7) ml/cmH2O | Creatinine [4]: 133 (102–152) μmol/L | Hemoglobin [4]: 116 (107–128) g/L | MAP [4]: 66 (55–97) mmHg | MPAP [4]: 46 (35–50) mmHg | P/F [4]: 22 (11–42) kPa | PCWP [4]: 18 (16–21) mmHg | PIP [4]: 33 (29–37) cmH20 | PVR [4]: 643 (390–1057) dynes*sec/cm^5 | PaCO2 [4]: 5.8 (4.9–7.1) kPa | SVR [4]: 1314 (1089–2375) dynes*sec/cm^5 | SvO2 [4]: 55 (25–66) % | Temperature [4]: 38.5 (38.0–40.1) °C | pH [4]: 7.16 (7.07–7.26) | Mortalitet: Tidpunkt (time of death or termination, individual animals, listed as sEH-i 950): 6 h and 9 h and 8 h
